# Paper PMC3329717 (Journal of Medicinal Chemistry, 2012)
# Assays:
# WEEV replicon [1] = test system: WEEV replicon
# WEEV replicon [2] = assay: microbe, parasite or virus in culture; details: Western equine encephalitis virus, BSR-T7, read-out: IC50, inhibition of luciferase expression in the WEEV replicon assay
# WEEV [3] = type: cell-based, western equine encephalitis virus
# NSV [4] = type: cell-based, neuroadapted Sindbis virus
# Mouse liver microsome = details: Balb-C, liver microsomes, pH 7.5
# [5] = Parallel Artificial Membrane Permeability Assay; details: PAMPA
# WEEV [6] = type: cell-based, western equine encephalitis virus; remark: listed apart in the source
# NSV [7] = type: cell-based, neuroadapted Sindbis virus; remark: listed apart in the source
# NSV [8] = test system: NSV; design: species or system mice; details: mouse, in vivo
# NSV [9] = test system: NSV; design: species or system mice; details: mouse, in vivo; remark: listed apart in the source
# NSV [10] = test system: NSV; design: species or system mice; details: mouse, in vivo; remark: listed apart in the source
# [11] = test system: vaccine strain of Venezuelan equine encephalitis virus (VEEV); details: mouse, in vivo; cited from earlier work
# wild-type VEEV = details: in vivo; cited from earlier work
Compound,CC50/IC50 (therapeutic index) (WEEV replicon [1]),IC50 (WEEV replicon [2]) [µM],further results
"O=C(NCc1ccccc1)C1CCN(C(=O)c2cc3sccc3n2Cc2ccc(F)cc2)CC1 [Compound 5a, N-benzyl-1-(4-(4-fluorobenzyl)-4H-thieno[3,2-b]pyrrole-5-carbonyl)piperidine-4-carboxamide]",>3.9,25.4 ± 7.3,–
"O=C(NCc1ccccc1)C1CCN(C(=O)c2cc3sccc3n2Cc2ccc(Cl)cc2)CC1 [Compound 5b, N-benzyl-1-(4-(4-chlorobenzyl)-4H-thieno[3,2-b]pyrrole-5-carbonyl)piperidine-4-carboxamide]",>9.9,10.1 ± 2.6,"WEEV titers (virion production, plaque assay) (WEEV [3]): significantly reduced; NSV titers (virion production, plaque assay) (NSV [4]): significantly reduced; half-life at 1 µM (Mouse liver microsome): 1.7 ± 1.7 min; Papp [5]: 251 ×10⁻⁶ cm/s"
"C[C@H](NC(=O)C1CCN(C(=O)c2cc3sccc3n2Cc2ccc(F)cc2)CC1)c1ccccc1 [Compound 5c, (S)-1-(4-(4-fluorobenzyl)-4H-thieno[3,2-b]pyrrole-5-carbonyl)-N-(1-phenylethyl)piperidine-4-carboxamide]",–,> 100,–
"C[C@@H](NC(=O)C1CCN(C(=O)c2cc3sccc3n2Cc2ccc(F)cc2)CC1)c1ccccc1 [Compound 5d, (R)-1-(4-(4-fluorobenzyl)-4H-thieno[3,2-b]pyrrole-5-carbonyl)-N-(1-phenylethyl)piperidine-4-carboxamide]",11,8.3 ± 1.3,–
"C[C@H](c1ccc(F)cc1)n1c(C(=O)N2CCC(C(=O)NCc3ccccc3)CC2)cc2sccc21 [Compound 5e, (R)-N-benzyl-1-(4-(1-(4-fluorophenyl)ethyl)-4H-thieno[3,2-b]pyrrole-5-carbonyl)piperidine-4-carboxamide]",>5.4,18.4 ± 4.7,–
"C[C@@H](c1ccc(F)cc1)n1c(C(=O)N2CCC(C(=O)NCc3ccccc3)CC2)cc2sccc21 [Compound 5f, (S)-N-benzyl-1-(4-(1-(4-fluorophenyl)ethyl)-4H-thieno[3,2-b]pyrrole-5-carbonyl)piperidine-4-carboxamide]",–,> 100,–
"O=C(NCc1ccccc1)C1CCN(C(=O)c2cc3ccccc3n2Cc2ccc(F)cc2)CC1 [Compound 9a, N-benzyl-1-(1-(4-fluorobenzyl)-1H-indole-2-carbonyl)piperidine-4-carboxamide]",>6.7,14.8 ± 5.8,–
"O=C(NCc1ccccc1)C1CCN(C(=O)c2cc3ccccc3n2Cc2ccc(Cl)cc2)CC1 [Compound 9b, N-benzyl-1-(1-(4-chlorobenzyl)-1H-indole-2-carbonyl)piperidine-4-carboxamide]",>6.5,15.5 ± 5.6,"WEEV titers (virion production, plaque assay) (WEEV [3]): significantly reduced; NSV titers (virion production, plaque assay) (NSV [4]): significantly reduced; half-life at 1 µM (Mouse liver microsome): 7.3 ± 3.9 min"
"O=C(NCc1ccccc1)C1CCCN(C(=O)c2cc3ccccc3n2Cc2ccc(Cl)cc2)C1 (stereo not drawn) [Compound 9c, N-benzyl-1-(1-(4-chlorobenzyl)-1H-indole-2-carbonyl)piperidine-3-carboxamide]",>3.3,30.6 ± 7.3,–
"O=C(Nc1ccccc1)C1CCN(C(=O)c2cc3ccccc3n2Cc2ccc(Cl)cc2)CC1 [Compound 9d, 1-(1-(4-chlorobenzyl)-1H-indole-2-carbonyl)-N-phenylpiperidine-4-carboxamide]",–,> 50,–
"O=C(NCCc1ccccc1)C1CCN(C(=O)c2cc3ccccc3n2Cc2ccc(Cl)cc2)CC1 [Compound 9e, 1-(1-(4-chlorobenzyl)-1H-indole-2-carbonyl)-N-phenethylpiperidine-4-carboxamide]",4.1,15.2 ± 9.3,–
"Cc1ccc(CCNC(=O)C2CCN(C(=O)c3cc4ccccc4n3Cc3ccc(Cl)cc3)CC2)cc1 [Compound 9f, 1-(1-(4-chlorobenzyl)-1H-indole-2-carbonyl)-N-(4-methylphenethyl)piperidine-4-carboxamide]",14,5.5 ± 2.2,–
"C[C@H](NC(=O)C1CCN(C(=O)c2cc3ccccc3n2Cc2ccc(Cl)cc2)CC1)c1ccccc1 [Compound 9g, (S)-1-(1-(4-chlorobenzyl)-1H-indole-2-carbonyl)-N-(1-phenylethyl)piperidine-4-carboxamide]",–,> 100,"Increase in cell viability after WEEV infection (reduction in CPE) (WEEV [6]): unable to rescue virus-induced CPE; Increase in cell viability after NSV infection (reduction in CPE) (NSV [7]): unable to rescue virus-induced CPE; WEEV titers (virion production, plaque assay) (WEEV [3]): inactive; NSV titers (virion production, plaque assay) (NSV [4]): inactive"
"C[C@@H](NC(=O)C1CCN(C(=O)c2cc3ccccc3n2Cc2ccc(Cl)cc2)CC1)c1ccccc1 [Compound 9h, (R)-1-(1-(4-chlorobenzyl)-1H-indole-2-carbonyl)-N-(1-phenylethyl)piperidine-4-carboxamide]",14,6.5 ± 1.5,"WEEV titers (virion production, plaque assay) (WEEV [3]): significantly reduced; NSV titers (virion production, plaque assay) (NSV [4]): significantly reduced; Development of severe hind limb paralysis (NSV [8]): conferred benefit against the development of severe hind limb paralysis; Pilot survival assays, dose comparison (NSV [8]): the higher concentration was more effective; Survival after lethal NSV infection (NSV [8]): significantly protected from lethal NSV infection; Viral titers in brain (NSV [9]): viral titers were lower; Viral titers in spinal cord (NSV [9]): A similar extent of viral inhibition was also observed; Neuronal injury in hippocampus (proportion of fluorojade-positive neurons) (NSV [10]): reduced neuronal injury; half-life at 1 µM (Mouse liver microsome): 31 ± 7.1 min"
"COc1ccc(CNC(=O)C2CCN(C(=O)c3cc4ccccc4n3Cc3ccc(Cl)cc3)CC2)cc1 [Compound 9i, 1-(1-(4-chlorobenzyl)-1H-indole-2-carbonyl)-N-(4-methoxybenzyl)piperidine-4-carboxamide]",–,> 50,–
"O=C(NCc1cccc(Cl)c1)C1CCN(C(=O)c2cc3ccccc3n2Cc2ccc(Cl)cc2)CC1 [Compound 9j, N-(3-chlorobenzyl)-1-(1-(4-chlorobenzyl)-1H-indole-2-carbonyl)piperidine-4-carboxamide]",>6.5,15.3 ± 9,–
"O=C(c1cc2ccccc2n1Cc1ccc(Cl)cc1)N1CCC(C(=O)N2CCCCC2)CC1 [Compound 9k, (1-(4-chlorobenzyl)-1H-indol-2-yl)(4-(piperidine-1-carbonyl)piperidin-1-yl)methanone]",5.6,9.2 ± 2.8,–
"O=C(NCc1ccncc1)C1CCN(C(=O)c2cc3ccccc3n2Cc2ccc(Cl)cc2)CC1 [Compound 9l, 1-(1-(4-chlorobenzyl)-1H-indole-2-carbonyl)-N-(pyridin-4-ylmethyl)piperidine-4-carboxamide]",>14,6.8 ± 1.7,–
"O=C(NCc1cccnc1)C1CCN(C(=O)c2cc3ccccc3n2Cc2ccc(Cl)cc2)CC1 [Compound 9m, 1-(1-(4-chlorobenzyl)-1H-indole-2-carbonyl)-N-(pyridin-3-ylmethyl)piperidine-4-carboxamide]",>8.7,11.4 ± 0.4,–
"NC(=O)c1ncn([C@@H]2O[C@H](CO)[C@@H](O)[C@H]2O)n1 [Ribavirin, reference compound]",–,16,–
(−)-carbodine,–,–,Disease outcome [11]: improved outcome; Lowering of peak CNS viral titers [11]: half-log; Benefit after wild-type VEEV challenge (wild-type VEEV): no benefit
